Source: patent US20250230193A1, “CYCLIC COMPOUND HAVING SELECTIVE KRAS INHIBITORY EFFECT ON HRAS AND NRAS” (CHUGAI SEIYAKU KABUSHIKI KAISHA, priority 2022, published 2025)

What was measured:
[1] = molecular target: GDP-bound NRAS wild-type protein (Homo sapiens, UniProt P01111); test: Binding to NRAS by surface plasmon resonance (SPR), Single Cycle Kinetics; conditions: for NRAS/KRAS (ratio of KD value with respect to NRAS to KD value with respect to KRAS): GDP-bound NRAS wild-type vs GDP-bound KRAS wild-type
Sequence of GDP-bound NRAS wild-type protein (P01111 whole entry): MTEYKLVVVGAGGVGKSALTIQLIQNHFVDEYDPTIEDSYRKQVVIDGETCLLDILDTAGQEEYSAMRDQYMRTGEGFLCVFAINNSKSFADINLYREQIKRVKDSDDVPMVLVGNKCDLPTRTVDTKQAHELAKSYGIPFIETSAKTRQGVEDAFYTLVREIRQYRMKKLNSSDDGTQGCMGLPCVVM

[2] = molecular target: GDP-bound HRAS wild-type protein (Homo sapiens, UniProt P01112); test: Binding to HRAS by surface plasmon resonance (SPR), Single Cycle Kinetics; conditions: for HRAS/KRAS (ratio of KD value with respect to HRAS to KD value with respect to KRAS): GDP-bound HRAS wild-type vs GDP-bound KRAS wild-type
Sequence of GDP-bound HRAS wild-type protein (P01112 whole entry): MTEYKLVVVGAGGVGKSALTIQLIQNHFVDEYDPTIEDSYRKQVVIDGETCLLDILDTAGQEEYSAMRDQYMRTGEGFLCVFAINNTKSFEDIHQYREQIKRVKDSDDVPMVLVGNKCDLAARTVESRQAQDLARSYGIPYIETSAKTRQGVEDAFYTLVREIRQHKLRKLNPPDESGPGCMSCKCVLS

| SMILES | NRAS/KRAS (ratio of KD value with respect to NRAS to KD value with respect to KRAS) ([1]; SPR) | HRAS/KRAS (ratio of KD value with respect to HRAS to KD value with respect to KRAS) ([2]; SPR) | further results |
| --- | --- | --- | --- |
| CC[C@@H]1C[C@H]2C(=O)NC3(CCCC3)C(=O)N(C)[C@@H](C3CCCC3)C(=O)N(C)[C@H](C(=O)N(C)CC)CC(=O)N(C)[C@@H](C)C(=O)N[C@@H]([C@@H](C)CC)C(=O)N(C)CC(=O)N(C)[C@H]3C/C=C\CCN(C3=O)[C@@H](Cc3ccc(C(F)(F)F)cc3)C(=O)N(C)CC(=O)N[C@@H](CCc3cc(F)c(C(F)(F)F)c(F)c3)C(=O)N2C1 [PP2271] | A (a compound having 10 or more and less than 20 is denoted as A) | A (a compound having 10 or more and less than 20 is denoted as A) |  |
| CCC[C@H]1C(=O)N[C@@H]([C@@H](C)CC)C(=O)N(C2CC2)CC(=O)N(C)[C@H]2C/C=C\CCN(C2=O)[C@@H](Cc2ccc(C)cc2)C(=O)N(C)CC(=O)N[C@@H](CCc2ccc(Cl)c(Cl)c2)C(=O)N2C[C@H](OC(C)C)C[C@H]2C(=O)NC2(CC(C)(C)C2)C(=O)N(C)[C@@H](C2CCCC2)C(=O)N(C)[C@H](C(=O)N(C)C)CC(=O)N1C [PP2571] |  |  | NRAS/KRAS (ratio of KD value with respect to GDP-bound NRAS wild-type protein to KD value with respect to KRAS) ([1]; class symbols): A (a compound having 10 or more and less than 20 is denoted as A); HRAS/KRAS (ratio of KD value with respect to GDP-bound HRAS wild-type protein to KD value with respect to KRAS) ([2]; class symbols): A (a compound having 10 or more and less than 20 is denoted as A) |
| CC(C)C[C@H]1C(=O)N[C@@H](C2CCC2)C(=O)N(C)CC(=O)N(C)[C@H]2CCCCCN(C2=O)[C@@H](Cc2ccc(C(F)(F)F)cc2)C(=O)N(C)CC(=O)N[C@@H](CCc2cc(F)c(C(F)(F)F)c(F)c2)C(=O)N2CCC[C@H]2C(=O)NC2(CCCC2)C(=O)N(C)[C@@H](C2CCCC2)C(=O)N(C)[C@H](C(=O)N2CCOCC2)CC(=O)N1C [PP0522] |  |  | NRAS/KRAS (ratio of KD value with respect to GDP-bound NRAS wild-type protein to KD value with respect to KRAS) ([1]; SPR): B (a compound having 3 or more and less than 10 is denoted as B); HRAS/KRAS (ratio of KD value with respect to GDP-bound HRAS wild-type protein to KD value with respect to KRAS) ([2]; SPR): B (a compound having 3 or more and less than 10 is denoted as B) |
| CCO[C@@H]1C[C@H]2C(=O)NC3(CC(C)(C)C3)C(=O)N(C)[C@@H](C(CC)CC)C(=O)N(C)[C@H](C(=O)N(C)C)CC(=O)N(C)[C@@H](CC3CCC3)C(=O)N[C@@H]([C@@H](C)CC)C(=O)N(C)CC(=O)N(C)[C@H]3C/C=C\CCN(C3=O)[C@@H](Cc3ccc(C)cc3)C(=O)N(C)CC(=O)N[C@@H](CCc3ccc(C(F)(F)F)c(Cl)c3)C(=O)N2C1 [PP2156] | AA (a compound having 20 or more is denoted as AA) | A (a compound having 10 or more and less than 20 is denoted as A) |  |
| C#CC[C@H]1C(=O)N[C@@H]([C@@H](C)CC)C(=O)N(C)CC(=O)N(C)[C@H]2C/C=C\CCN(C2=O)[C@@H](Cc2ccc(C(F)(F)F)cc2)C(=O)N(C)CC(=O)N[C@@H](CCc2ccc(C(F)(F)F)c(OC)c2)C(=O)N2C[C@@H](C)C[C@H]2C(=O)NC2(CCC2)C(=O)N(C)[C@@H](C2CCCC2)C(=O)N(C)[C@H](C(=O)N(C)CC)CC(=O)N1C [PP2061] | AA (a compound having 20 or more is denoted as AA) | A (a compound having 10 or more and less than 20 is denoted as A) |  |
| CCC[C@H]1C(=O)N[C@@H]([C@@H](C)CC)C(=O)N(C2CC2)CC(=O)N(C)[C@H]2C/C=C\CCN(C2=O)[C@@H](Cc2ccc(C(F)(F)F)cc2)C(=O)N(C)CC(=O)N[C@@H](CCc2ccc(C(F)(F)F)c(OC)c2)C(=O)N2C[C@H](OCC)C[C@H]2C(=O)NC2(CC(C)(C)C2)C(=O)N(C)[C@@H](C2CCCC2)C(=O)N(C)[C@H](C(=O)N(C)C)CC(=O)N1C [PP2105] | A (a compound having 10 or more and less than 20 is denoted as A) | A (a compound having 10 or more and less than 20 is denoted as A) |  |
| CCC[C@@H]1C[C@H]2C(=O)NC3(CCC3)C(=O)N(C)[C@@H](C3CCCC3)C(=O)N(C)[C@H](C(=O)N(C)C)CC(=O)N(C)[C@@H](CC(C)C)C(=O)N[C@@H]([C@@H](C)CC)C(=O)N(C)CC(=O)N(C)[C@H]3C/C=C\CCN(C3=O)[C@@H](Cc3ccc(C)cc3)C(=O)N(C)CC(=O)N[C@@H](CCc3cc(F)c(C(F)(F)F)c(F)c3)C(=O)N2C1 [PP2231] | A (a compound having 10 or more and less than 20 is denoted as A) | B (a compound having 3 or more and less than 10 is denoted as B) |  |
| CCO[C@@H]1C[C@H]2C(=O)NC3(CC(C)(C)C3)C(=O)N(C)[C@@H](C(CC)CC)C(=O)N(C)[C@H](C(=O)N(C)C)CC(=O)N(C)[C@@H](CC3CCC3)C(=O)N[C@@H]([C@@H](C)CC)C(=O)N(C)CC(=O)N(C)[C@H]3C/C=C\CCN(C3=O)[C@@H](Cc3ccc(C(F)(F)F)cc3)C(=O)N(C)CC(=O)N[C@@H](CCc3cc(F)c(C(F)(F)F)c(F)c3)C(=O)N2C1 [PP2133] | AA (a compound having 20 or more is denoted as AA) | A (a compound having 10 or more and less than 20 is denoted as A) |  |
